Test results from patent publication US4072743A, “N^2 -arylsulfonyl-L-argininamides and the pharmaceutically acceptable salts thereof” (Mitsubishi Chemical Industries Limited, priority 1974, dated 1978).

How the values were obtained:
mice = assay: Acute toxicity (LD50) by intraperitoneal administration in mice; type: in vivo; settings: mice (male, 20 g)
From the text: Representative LD50 values, for example, for N^2 -(5,6,7,8-tetrahydro-1-naphthylsulfonyl)-N-(2-methoxyethyl)glycine, N^2 -(7-methyl-2-naphthylsulfonyl)-N-butylglycine and N^2 -(6,7-dimethyl-1-naphthylsulfonyl)-N-(2-methoxyethyl)glycine are above 1,500 milligrams per kilogram, respectively.

thrombin = target: T1, thrombin (Bos taurus, UniProt P00735); assay: Fibrinogen coagulation time (thrombin-induced clotting of bovine fibrinogen); type: biochemical; settings: thrombin 5 units/ml, borate saline buffer pH 7.4, 25° C, normal coagulation time 50-55 seconds prolonged to 100-110 seconds
T1 construct: purchased Mochida Pharmaceutical Co., Ltd
Procedure: The measurement of the fibrinogen coagulation time was conducted as follows:
Immediately after mixing, the reaction mixture was transferred from the ice bath to a bath maintained at 25° C. Coagulation times were taken as the period between the time of transference to the 25° C bath and the time of the first appearance of fibrin threads.
The term "concentration required to prolong the coagulation time by a factor of two" is the concentration of an active ingredient required to prolong the normal coagulation time 50-55 seconds to 100-110 seconds.

SMILES | Concentration required to prolong the coagulation time by a factor of two (thrombin) | acute toxicity value (LD50) (mice)
CCCCNC(=O)[C@H](CCCNC(=N)N)NS(=O)(=O)c1cccc2c(N(C)C)cccc12 [N^2 -dansyl-N-butyl-L-argininamide, reference compound] | – | 75 milligrams per kilogram
CCCCN(C)C(=O)[C@H](CCCNC(=N)N)NS(=O)(=O)c1cccc2c(N(C)C)cccc12 [N^2 -dansyl-N-methyl-N-butyl-L-argininamide, reference compound] | – | 70 milligrams per kilogram
COCCN(CC(=O)O)C(=O)[C@H](CCCNC(=N)N)NS(=O)(=O)c1cccc2c1CCCC2 [Sample 3, N^2-(5,6,7,8-tetrahydro-1-naphthylsulfonyl)-L-arginyl-N-(2-methoxyethyl)glycine] | 10 µM | above 1,500 milligrams per kilogram
CCCCN(CC(=O)O)C(=O)[C@H](CCCNC(=N)N)NS(=O)(=O)c1ccc2ccc(C)cc2c1 [Sample 14, N^2-(7-methyl-2-naphthylsulfonyl)-L-arginyl-N-butylglycine] | 0.3 µM | above 1,500 milligrams per kilogram
COCCN(CC(=O)O)C(=O)[C@H](CCCNC(=N)N)NS(=O)(=O)c1cccc2cc(C)c(C)cc12 [Sample 23, N^2-(6,7-dimethyl-1-naphthylsulfonyl)-L-arginyl-N-(2-methoxyethyl)glycine] | 10 µM | above 1,500 milligrams per kilogram

Further lines, with some results ahead:

Concentration required to prolong the coagulation time by a factor of two (thrombin) | SMILES | acute toxicity value (LD50) (mice)
20 µM | CCCCN(CC(=O)O)C(=O)[C@H](CCCNC(=N)N)NS(=O)(=O)c1cccc2c1CCCC2 [Sample 1, N^2-(5,6,7,8-tetrahydro-1-naphthylsulfonyl)-L-arginyl-N-butylglycine] | –
30 µM | N=C(N)NCCC[C@H](NS(=O)(=O)c1ccc2c(c1)CCCC2)C(=O)N(CC(=O)O)Cc1ccccc1 [Sample 4, N^2-(5,6,7,8-tetrahydro-2-naphthylsulfonyl)-L-arginyl-N-benzylglycine] | –
0.2 µM | COCCN(CC(=O)O)C(=O)[C@H](CCCNC(=N)N)NS(=O)(=O)c1ccc2ccc(C)cc2c1 [Sample 15, N^2-(7-methyl-2-naphthylsulfonyl)-L-arginyl-N-(2-methoxyethyl)glycine] | –
14 µM | Cc1ccc2ccc(S(=O)(=O)N[C@@H](CCCNC(=N)N)C(=O)N(CC(=O)O)CC3CCCCC3)cc2c1 [Sample 17, N^2-(7-methyl-2-naphthylsulfonyl)-L-arginyl-N-cyclohexylmethylglycine] | –
20 µM | COCCN(CC(=O)O)C(=O)[C@H](CCCNC(=N)N)NS(=O)(=O)c1cccc2ccc(C)cc12 [Sample 22, N^2-(7-methyl-1-naphthylsulfonyl)-L-arginyl-N-(2-methoxyethyl)glycine] | –
4 µM | CCCCN(CC(=O)O)C(=O)[C@H](CCCNC(=N)N)NS(=O)(=O)c1cccc2c(N(C)C)cccc12 [Sample 24, N^2-(5-dimethylamino-1-naphthylsulfonyl)-L-arginyl-N-butylglycine] | –
